According to ChEMBL document CHEMBL1131975, “Synthesis and antitumor activity of bithienyl-pyrimidine derivatives with electrostatic binding side chains” (Bioorg Med Chem Lett, 1999):
In brackets after ≈: the same amount, converted by molar mass.

Columns and labels:
COLO 205 = experiment: In vitro cytotoxicity against human colon carcinoma (Colon-205) cells; format: functional, cell-based
Nucleic Acid = experiment: Evaluated for binding affinity with DNA at a pH of 8 by Fluorimetric method; format: nucleic-acid assay
HeLa = experiment: In vitro cytotoxicity against human cervical carcinoma (Hela) cells at dose 50 ug/mL; format: functional, cell-based
KB = experiment: In vitro cytotoxicity against human oral epidermoid carcinoma (KB) cells; format: functional, cell-based
HEp-2 = experiment: In vitro cytotoxicity against human larynx carcinoma (Hep-2); format: functional, cell-based

| SMILES | IC50 (COLO 205) | K ass (Nucleic Acid) | IC50 (HeLa) | IC50 (KB) | IC50 (HEp-2) |
| --- | --- | --- | --- | --- | --- |
| CN(C)CCOc1nccc(-c2ccc(-c3cccs3)s2)n1 | 12 µg/mL (≈ 36.2 µM) | 2.1e+07 M⁻¹ | 15 µg/mL (≈ 45.3 µM) | 17 µg/mL (≈ 51.3 µM) | 16 µg/mL (≈ 48.3 µM) |
| CN(C)CCOc1nccc(-c2cccs2)n1 | > 50 µg/mL |  | > 50 µg/mL | > 50 µg/mL | > 50 µg/mL |
| CN(C)CCCOc1nccc(-c2ccc(-c3cccs3)s2)n1 | 7 µg/mL (≈ 20.3 µM) | 3e+07 M⁻¹ | 7 µg/mL (≈ 20.3 µM) | 5 µg/mL (≈ 14.5 µM) | 11 µg/mL (≈ 31.8 µM) |
| CN(C)CCSc1nccc(-c2ccc(-c3cccs3)s2)n1 | 30 µg/mL (≈ 86.3 µM) | 6.5e+06 M⁻¹ | 25 µg/mL (≈ 71.9 µM) | 50 µg/mL (≈ 144 µM) | 50 µg/mL (≈ 144 µM) |
| CN(C)CCSc1nccc(-c2cccs2)n1 | > 50 µg/mL |  | > 50 µg/mL | > 50 µg/mL | > 50 µg/mL |
| CN(C)CCCOc1nccc(-c2cccs2)n1 | > 50 µg/mL |  | > 50 µg/mL | > 50 µg/mL | > 50 µg/mL |
